Measurements from patent US20230278972A1, “SUBSTITUTED HALOALKYL SULFONANILIDE HERBICIDES” (FMC Corporation, priority 2020, published 2023).

Legend:
Type in all cases: in vivo
[1] = system: galium (catchweed bedstraw, Galium aparine); assay: Test A1 postemergence, galium; details: for Galium plant response rating: 31 g ai/ha, postemergence, 0 to 100 scale (0 no effect, 100 complete control); for Plant response rating, Galium: Postemergence, 125 g ai/ha, 0 to 100 scale
From the text: (§1) Seeds of plant species selected from, blackgrass (Alopecurus myosuroides), corn (Zea mays), Foxtail, Giant (giant foxtail, Setaria faberi), goosegrass (Eleusine indica), kochia (Bassia scoparia), Oat, Wild (wild oat, Avena fatua), Pigweed, Palmer (palmer amaranth, palmer pigweed, Amaranthus palmeri), ragweed (common ragweed, Ambrosia artemisiifolia), Ryegrass, Italian (Italian ryegrass, Lolium multiflorum), soybean (Glycine max), and wheat (Triticum aestivum) were planted into a blend of loam soil and sand and treated preemergence with a directed soil spray using test chemicals formulated in a non-phytotoxic solvent mixture which included a surfactant. At the same time, plants selected from these crop and weed species and also galium (catchweed bedstraw, Galium aparine) and horseweed (Erigeron canadensis) were planted in pots containing the same blend of loam soil and sand and treated with postemergence applications of test chemicals formulated in the same manner. Plants ranged in height from 2 to 10 cm and were in the one- to two-leaf stage for the postemergence treatment. […] A dash (-) response means no test result.

[2] = system: Pigweed, Palmer (palmer amaranth, palmer pigweed, Amaranthus palmeri); assay: Test A1 postemergence, Pigweed, Palmer; details: for Pigweed, Palmer plant response rating: 31 g ai/ha, postemergence, 0 to 100 scale (0 no effect, 100 complete control); for Plant response rating, Pigweed, Palmer: Postemergence, 125 g ai/ha, 0 to 100 scale
From the text: as §1

[3] = system: soybean (Glycine max); assay: Test A1 preemergence, soybean
From the text: as §1

[4] = system: Foxtail, Giant (giant foxtail, Setaria faberi); assay: Test A1 preemergence, Foxtail, Giant
From the text: as §1

[5] = system: goosegrass (Eleusine indica); assay: Test A1 preemergence, goosegrass
From the text: as §1

[6] = system: ragweed (common ragweed, Ambrosia artemisiifolia); assay: Test A1 preemergence, ragweed
From the text: as §1

[7] = system: Oat, Wild (wild oat, Avena fatua); assay: Test A1 preemergence, Oat, Wild
From the text: as §1

[8] = system: Ryegrass, Italian (Italian ryegrass, Lolium multiflorum); assay: Test A1 preemergence, Ryegrass, Italian
From the text: as §1

[9] = system: kochia (Bassia scoparia); assay: Test A1 postemergence, kochia; details: for Kochia plant response rating: 31 g ai/ha, postemergence, 0 to 100 scale (0 no effect, 100 complete control); for Plant response rating, Kochia: Postemergence, 125 g ai/ha, 0 to 100 scale
From the text: as §1

[10] = system: goosegrass (Eleusine indica); assay: Test A1 postemergence, goosegrass; details: for Goosegrass plant response rating: 31 g ai/ha, postemergence, 0 to 100 scale (0 no effect, 100 complete control); for Plant response rating, Goosegrass: Postemergence, 125 g ai/ha, 0 to 100 scale
From the text: as §1

[11] = system: wheat (Triticum aestivum); assay: Test A1 postemergence, wheat; details: for Wheat plant response rating: 31 g ai/ha, postemergence, 0 to 100 scale (0 no effect, 100 complete control); for Plant response rating, Wheat: Postemergence, 125 g ai/ha, 0 to 100 scale
From the text: as §1

[12] = system: barnyardgrass (Echinochloa crus-galli); assay: Test B1 flooded paddy test, barnyardgrass; details: 250 g ai/ha, Flood, applied to paddy water, 2-leaf stage, visually evaluated after 10 to 14 days
From the text: (§2) A dash (-) response means no test result.

[13] = system: wheat (Triticum aestivum); assay: Test A1 preemergence, wheat
From the text: as §1

[14] = system: blackgrass (Alopecurus myosuroides); assay: Test A1 postemergence, blackgrass; details: Postemergence, 0 to 100 scale (0 no effect, 100 complete control)
From the text: as §1

[15] = system: ragweed (common ragweed, Ambrosia artemisiifolia); assay: Test A1 postemergence, ragweed; details: for Ragweed plant response rating: 31 g ai/ha, postemergence, 0 to 100 scale (0 no effect, 100 complete control); for Plant response rating, Ragweed: Postemergence, 125 g ai/ha, 0 to 100 scale
From the text: as §1

[16] = system: kochia (Bassia scoparia); assay: Test A1 preemergence, kochia
From the text: as §1

[17] = system: blackgrass (Alopecurus myosuroides); assay: Test A1 preemergence, blackgrass
From the text: as §1

[18] = system: rice (Oryza sativa); assay: Test B1 flooded paddy test, rice; details: 250 g ai/ha, Flood, applied to paddy water, 2-leaf stage, visually evaluated after 10 to 14 days
From the text: as §2

[19] = system: Foxtail, Giant (giant foxtail, Setaria faberi); assay: Test A1 postemergence, Foxtail, Giant; details: for Foxtail, Giant plant response rating: 31 g ai/ha, postemergence, 0 to 100 scale (0 no effect, 100 complete control); for Plant response rating, Foxtail, Giant: Postemergence, 125 g ai/ha, 0 to 100 scale
From the text: as §1

[20] = system: Pigweed, Palmer (palmer amaranth, palmer pigweed, Amaranthus palmeri); assay: Test A1 preemergence, Pigweed, Palmer
From the text: as §1

[21] = system: Ryegrass, Italian (Italian ryegrass, Lolium multiflorum); assay: Test A1 postemergence, Ryegrass, Italian; details: for Ryegrass, Italian plant response rating: 31 g ai/ha, postemergence, 0 to 100 scale (0 no effect, 100 complete control); for Plant response rating, Ryegrass, Italian: Postemergence, 125 g ai/ha, 0 to 100 scale
From the text: as §1

[22] = system: corn (Zea mays); assay: Test A1 postemergence, corn; details: Postemergence
From the text: as §1

[23] = system: corn (Zea mays); assay: Test A1 preemergence, corn
From the text: as §1

[24] = system: soybean (Glycine max); assay: Test A1 postemergence, soybean; details: for Soybean plant response rating: 31 g ai/ha, postemergence, 0 to 100 scale (0 no effect, 100 complete control); for Plant response rating, Soybean: Postemergence, 125 g ai/ha, 0 to 100 scale
From the text: as §1

[25] = system: ducksalad (Heteranthera limosa); assay: Test B1 flooded paddy test, ducksalad; details: 250 g ai/ha, Flood, applied to paddy water, 2-leaf stage, visually evaluated after 10 to 14 days
From the text: as §2

[26] = system: Oat, Wild (wild oat, Avena fatua); assay: Test A1 postemergence, Oat, Wild; details: for Oat, Wild plant response rating: 31 g ai/ha, postemergence, 0 to 100 scale (0 no effect, 100 complete control); for Plant response rating, Oat, Wild: Postemergence, 125 g ai/ha, 0 to 100 scale
From the text: as §1

[27] = 31 g ai/ha, 0 to 100 scale (0 no effect, 100 complete control)
[28] = 125 g ai/ha, 0 to 100 scale, 0 no effect, 100 complete control
[29] = 31 g ai/ha, 0 to 100 scale (0 no effect, 100 complete control), 10 days

Question: With CCOC(=O)N(c1cc(C(=O)N2C[C@@H](C)O[C@H](C)C2)c(C)c(C)c1C)S(=O)(=O)C(F)(F)F (relative stereo) [Compound 374] as the compound, how does the “Galium plant response rating” value [1] read?
Answer: 60

Question: What about the “Plant response rating, Galium” value [1] of the same compound?
Answer: 80

Question: What about the “Pigweed, Palmer plant response rating” value [2] of the same compound?
Answer: 10

Question: And the “Plant response rating, Pigweed, Palmer” value [2]?
Answer: 30

Question: What about the “Plant response rating, Soybean” value [3, 27] of the same compound?
Answer: 0

Question: And the “Plant response rating, Soybean” value [3, 28]?
Answer: 70

Question: What about the “Plant response rating, Foxtail, Giant” value [4, 27] of the same compound?
Answer: 50

Question: And the “Plant response rating, Foxtail, Giant” value [4, 28]?
Answer: 100

Question: What about the “Plant response rating, Goosegrass” value [5, 27] of the same compound?
Answer: 60

Question: And the “Plant response rating, Goosegrass” value [5, 28]?
Answer: 100

Question: And the “Plant response rating, Ragweed” value [6, 27]?
Answer: 0

Question: What about the “Plant response rating, Ragweed” value [6, 28] of the same compound?
Answer: 70

Question: And the “Plant response rating, Oat, Wild” value [7, 27]?
Answer: 0

Question: And the “Plant response rating, Oat, Wild” value [7, 28]?
Answer: 30

Question: And the “Plant response rating, Ryegrass, Italian” value [8, 27]?
Answer: 0

Question: What about the “Plant response rating, Ryegrass, Italian” value [8, 28] of the same compound?
Answer: 90

Question: And the “Kochia plant response rating” value [9]?
Answer: 0

Question: And the “Plant response rating, Kochia” value [9]?
Answer: 10

Question: What about the “Goosegrass plant response rating” value [10] of the same compound?
Answer: 0

Question: And the “Plant response rating, Goosegrass” value [10]?
Answer: 90

Question: And the “Wheat plant response rating” value [11]?
Answer: 20

Question: And the “Plant response rating, Wheat” value [11]?
Answer: 50

Question: And the “Plant response rating, Barnyardgrass (0 to 100 scale, 0 is no effect, 100 is complete control)” value [12]?
Answer: 40

Question: And the “Plant response rating, Wheat” value [13, 27]?
Answer: 0

Question: And the “Plant response rating, Wheat” value [13, 28]?
Answer: 30

Question: And the “Plant response rating, Blackgrass” value ([14]; 31 g ai/ha, 10 days)?
Answer: 0

Question: And the “Plant response rating, Blackgrass” value ([14]; 125 g ai/ha)?
Answer: 10

Question: What about the “Ragweed plant response rating” value [15] of the same compound?
Answer: 60

Question: What about the “Plant response rating, Ragweed” value [15] of the same compound?
Answer: 80

Question: What about the “Plant response rating, Kochia” value [16, 27] of the same compound?
Answer: 0

Question: And the “Plant response rating, Kochia” value [16, 28]?
Answer: 0

Question: And the “Plant response rating, Blackgrass” value [17, 27]?
Answer: 0

Question: What about the “Plant response rating, Blackgrass” value [17, 28] of the same compound?
Answer: 0

Question: And the “Plant response rating, Rice (0 to 100 scale, 0 is no effect, 100 is complete control)” value [18]?
Answer: 0

Question: What about the “Foxtail, Giant plant response rating” value [19] of the same compound?
Answer: 0

Question: And the “Plant response rating, Foxtail, Giant” value [19]?
Answer: 80

Question: And the “Plant response rating, Pigweed, Palmer” value [20, 27]?
Answer: 60

Question: And the “Plant response rating, Pigweed, Palmer” value [20, 28]?
Answer: 80

Question: And the “Ryegrass, Italian plant response rating” value [21]?
Answer: 0

Question: And the “Plant response rating, Ryegrass, Italian” value [21]?
Answer: 50

Question: And the “Plant response rating, Corn” value [22, 29]?
Answer: 60

Question: And the “Plant response rating, Corn” value ([22]; 125 g ai/ha, 0 to 100 scale)?
Answer: 70

Question: What about the “Plant response rating, Corn” value [23, 27] of the same compound?
Answer: 20

Question: What about the “Plant response rating, Corn” value [23, 28] of the same compound?
Answer: 40

Question: What about the “Soybean plant response rating” value [24] of the same compound?
Answer: 50

Question: What about the “Plant response rating, Soybean” value [24] of the same compound?
Answer: 90

Question: And the “Plant response rating, Ducksalad (0 to 100 scale, 0 is no effect, 100 is complete control)” value [25]?
Answer: 85

Question: What about the “Oat, Wild plant response rating” value [26] of the same compound?
Answer: 0

Question: What about the “Plant response rating, Oat, Wild” value [26] of the same compound?
Answer: 10

Question: What does the source list for Cc1c(C(=O)N2CCC(C)CC2)cc(N(COC(=O)C(C)(C)C)S(=O)(=O)C(F)(F)F)c(C)c1C [Compound 369]?
Answer: Galium plant response rating [1]: 60; Plant response rating, Galium [1]: 80; Pigweed, Palmer plant response rating [2]: 0; Plant response rating, Pigweed, Palmer [2]: 40; Plant response rating, Soybean [3, 27]: 0; Plant response rating, Soybean [3, 28]: 30; Plant response rating, Foxtail, Giant [4, 27]: 0; Plant response rating, Foxtail, Giant [4, 28]: 20; Plant response rating, Goosegrass [5, 27]: 0; Plant response rating, Goosegrass [5, 28]: 50; Plant response rating, Ragweed [6, 27]: 0; Plant response rating, Ragweed [6, 28]: 90; Plant response rating, Oat, Wild [7, 27]: 0; Plant response rating, Oat, Wild [7, 28]: 20; Plant response rating, Ryegrass, Italian [8, 27]: 40; Plant response rating, Ryegrass, Italian [8, 28]: 40; Kochia plant response rating [9]: 0; Plant response rating, Kochia [9]: 50; Goosegrass plant response rating [10]: 0; Plant response rating, Goosegrass [10]: 0; Wheat plant response rating [11]: 0; Plant response rating, Wheat [11]: 20; Plant response rating, Barnyardgrass (0 to 100 scale, 0 is no effect, 100 is complete control) [12]: 90; Plant response rating, Wheat [13, 27]: 0; Plant response rating, Wheat [13, 28]: 0; Plant response rating, Blackgrass ([14]; 31 g ai/ha, 10 days): 0; Plant response rating, Blackgrass ([14]; 125 g ai/ha): 0; Ragweed plant response rating [15]: 20; Plant response rating, Ragweed [15]: 80; Plant response rating, Kochia [16, 27]: 0; Plant response rating, Kochia [16, 28]: 0; Plant response rating, Blackgrass [17, 27]: 0; Plant response rating, Blackgrass [17, 28]: 0; Plant response rating, Rice (0 to 100 scale, 0 is no effect, 100 is complete control) [18]: 20; Foxtail, Giant plant response rating [19]: 20; Plant response rating, Foxtail, Giant [19]: 90; Plant response rating, Pigweed, Palmer [20, 27]: 0; Plant response rating, Pigweed, Palmer [20, 28]: 50; Ryegrass, Italian plant response rating [21]: 0; Plant response rating, Ryegrass, Italian [21]: 20; Plant response rating, Corn [22, 29]: 0; Plant response rating, Corn ([22]; 125 g ai/ha, 0 to 100 scale): 50; Plant response rating, Corn [23, 27]: 0; Plant response rating, Corn [23, 28]: 0; Soybean plant response rating [24]: 20; Plant response rating, Soybean [24]: 90; Plant response rating, Ducksalad (0 to 100 scale, 0 is no effect, 100 is complete control) [25]: 65; Oat, Wild plant response rating [26]: 0; Plant response rating, Oat, Wild [26]: 0
